In the NIST ThermoML archive (doi:10.1021/je100017w):

Settings: Liquid

CC[Si](OC)(OC)OC [ethyltrimethoxysilane]
Settings | vapor or sublimation pressure [kPa]
306.35 K | 2.325
311.45 K | 3.325
315.95 K | 4.325
319.8 K | 5.325
324.15 K | 6.325
328.65 K | 8.325
334.15 K | 10.32
338.95 K | 13.32
343.65 K | 16.32
347.65 K | 19.32
351.35 K | 22.32
354.55 K | 25.32
357.45 K | 28.32
360.15 K | 31.32
362.65 K | 34.33
364.95 K | 37.33
367.55 K | 40.33
369.65 K | 43.33
371.05 K | 46.33
374.05 K | 49.33
375.85 K | 52.33
376.45 K | 55.33
379.85 K | 58.33
381.15 K | 61.33
382.55 K | 64.33
383.15 K | 67.33
384.85 K | 70.33
385.85 K | 73.33
386.65 K | 76.33
387.55 K | 79.33
388.95 K | 82.33
389.95 K | 85.33
390.95 K | 88.33
392.95 K | 91.33
393.05 K | 94.33
393.75 K | 97.33
393.95 K | 100.33
397.15 K | 101.33
